Columns and labels:
[1] = tested on: Boophilus microplus; experiment: Boophilus microplus injection test; type: in vivo; settings: 20 μg/animal, injection into engorged adult female cattle ticks, assessed after 7 days
Procedure: Boophilus microplus—Injection Test Solvent: dimethyl sulfoxide To produce a suitable active compound formulation, 10 mg of active compound are mixed with 0.5 ml of solvent and the concentrate is diluted to the desired concentration with solvent. 1 μl of the active compound solution is injected into the abdomen of 5 engorged adult female cattle ticks (Boophilus microplus). The animals are transferred into dishes and kept in a climate-controlled room. Efficacy is assessed after 7 days by laying of fertile eggs. Eggs which are not visibly fertile are stored in a climate-controlled cabinet until the larvae hatch after about 42 days. An efficacy of 100% means that none of the ticks has laid any fertile eggs; 0% means that all the eggs are fertile.

[2] = tested on: Ctenocephalides felis; experiment: Ctenocephalides felis oral test; type: in vivo; settings: 100 ppm in citrated cattle blood, adult cat fleas, after 2 days
Procedure: Ctenocephalides felis—Oral Test
Solvent: dimethyl sulfoxide
To produce a suitable active compound formulation, 10 mg of active compound are mixed with 0.5 ml of dimethyl sulfoxide. Dilution with citrated cattle blood gives the desired concentration.
About 20 unfed adult cat fleas (Ctenocephalidesfelis) are placed into a chamber which is closed at the top and bottom with gauze. A metal cylinder whose bottom end is closed with parafilm is placed onto the chamber. The cylinder contains the blood/active compound formulation, which can be imbibed by the fleas through the parafilm membrane.
After 2 days, the kill in % is determined. 100% means that all of the fleas have been killed; 0% means that none of the fleas have been killed.

[3] = tested on: Myzus persicae; experiment: Myzus persicae oral test; type: in vivo; settings: 120 h, oral uptake from microtitre plates, after 5 days, read-out: efficacy (aphids killed)
Procedure: Myzus persicae—Oral Test Solvent: 100 parts by weight of acetone To produce a suitable preparation of active compound, 1 part by weight of active compound is dissolved using the specified parts by weight of solvent and made up with water until the desired concentration is attained. 50 μl of the active compound preparation are transferred into microtitre plates and made up to a final volume of 200 μl with 150 μl of IPL41 insect medium (33%+15% sugar). Subsequently, the plates are sealed with parafilm, which a mixed population of green peach aphids (Myzus persicae) within a second microtitre plate is able to puncture and imbibe the solution through. After 5 days, the efficacy in % is determined. 100% means that all the aphids have been killed; 0% means that no aphids have been killed.

[4] = tested on: Spodoptera frugiperda; experiment: Spodoptera frugiperda spray test; type: in vivo; settings: 100 g/ha, maize leaf discs, after 7 days
Procedure: Spodoptera frugiperda—Spray Test
(§1) Solvent: 78.0 parts by weight of acetone • • 1.5 parts by weight of dimethylformamide
(§2) Emulsifier: alkylaryl polyglycol ether
(§3) To produce a suitable active compound preparation, 1 part by weight of active compound is dissolved using the stated parts by weight of solvent and made up with water containing an emulsifier concentration of 1000 ppm until the desired concentration is attained. To produce further test concentrations, the formulation is diluted with emulsifier-containing water.
Leaf discs of maize (Zea mays) are sprayed with an active compound formulation of the desired concentration and, after drying, populated with caterpillars of the fall armyworm (Spodopterafrugiperda).
After 7 days, the efficacy in % is determined. 100% means that all the caterpillars have been killed; 0% means that no caterpillar has been killed.

[5] = log P determination by HPLC on reversed-phase column (C18), acidic range; type: physicochemical; settings: LC-UV, formic acid in water/acetonitrile
Procedure: log P Values The log P values were determined according to EEC Directive 79/831 Annex V.A8 by HPLC (high-performance liquid chromatography) on a reversed-phase column (C18) using the following methods: ^[a] […] Calibration was carried out using a homologous series of straight-chain alkan-2-ones (having 3 to 16 carbon atoms) with known log P values. The values between successive alkanones are determined by linear regression.

[6] = tested on: Diabrotica balteata; experiment: Diabrotica balteata spray test; type: in vivo; settings: 160 μg/cavity, sprayed germinated wheat grains, beetle larvae, after 7 days
Procedure: Diabrotica balteata—Spray Test Solvent: 78 parts by weight of acetone • • 1.5 parts by weight of dimethylformamide Emulsifier: alkylaryl polyglycol ether To produce a suitable active compound preparation, 1 part by weight of active compound is dissolved using the stated parts by weight of solvent and made up with water containing an emulsifier concentration of 1000 ppm until the desired concentration is attained. To produce further test concentrations, the formulation is diluted with emulsifier-containing water. Pre-swollen wheat grains (Triticum aestivum) are incubated in a multiwell plate filled with agar and a little water for one day (5 seed grains per cavity). The germinated wheat grains are sprayed with an active compound preparation of the desired concentration. Subsequently, each cavity is infected with 10-20 beetle larvae of Diabrotica balteata. After 7 days, the efficacy in % is determined. 100% means that all wheat plants have grown as in the untreated, uninfected control; 0% means that no wheat plant has grown.

[7] = tested on: Myzus persicae; experiment: Myzus persicae spray test; type: in vivo; settings: foliar, 120 h, Chinese cabbage leaf discs, after 5 days, read-out: efficacy (aphids killed)
Procedure: Myzus persicae—Spray Test Solvent: 78 parts by weight of acetone • • 1.5 parts by weight of dimethylformamide Emulsifier: alkylaryl polyglycol ether To produce a suitable active compound preparation, 1 part by weight of active compound is dissolved using the stated parts by weight of solvent and made up with water containing an emulsifier concentration of 1000 ppm until the desired concentration is attained. To produce further test concentrations, the formulation is diluted with emulsifier-containing water. Discs of Chinese cabbage leaves (Brassica pekinensis) infested by all stages of the green peach aphid (Myzus persicae) are sprayed with an active compound formulation of the desired concentration. After 5 days, the efficacy in % is determined. 100% means that all the aphids have been killed; 0% means that no aphids have been killed.

[8] = tested on: Meloidogyne incognita; experiment: Meloidogyne incognita test; type: in vivo; settings: 20 ppm, lettuce in sand, after 14 days
Procedure: Meloidogyne incognita test Solvent: 125.0 parts by weight of acetone To produce a suitable active compound formulation, 1 part by weight of active compound is mixed with the stated amount of solvent and the concentrate is diluted to the desired concentration with water. Vessels are filled with sand, active compound solution, an egg/larvae suspension of the southern root-knot nematode (Meloidogyne incognita) and lettuce seeds. The lettuce seeds germinate and the plants develop. The galls develop on the roots. After 14 days, the nematicidal efficacy in % is determined by the formation of galls. 100% means that no galls were found; 0% means that the number of galls on the treated plants corresponds to the untreated control.

[9] = tested on: Phaedon cochleariae; experiment: Phaedon cochleariae spray test; type: in vivo; settings: 100 g/ha, Chinese cabbage leaf discs, after 7 days
Procedure: Phaedon cochleariae—Spray Test
as §1, §2, §3
Discs of Chinese cabbage leaves (Brassica pekinensis) are sprayed with an active compound formulation of the desired concentration and, after drying, populated with larvae of the mustard beetle (Phaedon cochleariae).
After 7 days, the efficacy in % is determined. 100% means that all the beetle larvae have been killed; 0% means that no beetle larvae have been killed.

[10] = tested on: Tetranychus urticae; experiment: Tetranychus urticae spray test, OP-resistant; type: in vivo; settings: 100 g/ha, bean leaf discs, after 6 days
Procedure: Tetranychus urticae—Spray Test, OP-Resistant
as §1, §2, §3
Discs of bean leaves (Phaseolus vulgaris) infested with all stages of the greenhouse red spider mite (Tetranychus urticae) are sprayed with an active compound formulation of the desired concentration.
After 6 days, the efficacy in % is determined. 100% means that all the spider mites have been killed; 0% means that no spider mites have been killed.

| SMILES | chromatographic logP [5] | pest or weed control at 4 ppm [3] [%] | efficacy (caterpillars killed) [4] [%] | efficacy [6] [%] | pest or weed control at 100 g/ha [7] [%] | other results |
| --- | --- | --- | --- | --- | --- | --- |
| CCS(=O)(=O)c1c(-c2nc3cc(C(F)(F)F)n(C)c(=O)c3n2C)nc2n1CCCC2C (centres unmarked) [Example I-11] | – | 100 | – | 100 | 90 | – |
| CCS(=O)(=O)c1c(-c2nc3cc(C(F)(F)F)n(C)c(=O)c3n2C)nc2n1CCC(C(F)(F)F)C2 (centres unmarked) [Example I-06] | – | 100 | 100 | 100 | – | – |
| CCS(=O)(=O)c1c(-c2nc3cc(C(F)(F)F)n(C)c(=O)c3n2C)nc2n1CC(C)CC2 (centres unmarked) [Example I-04] | – | 100 | – | – | 100 | – |
| CCS(=O)(=O)c1c(-c2nc3cc(C(F)(F)F)n(C)c(=O)c3n2C)nc2n1CCC(C)C2C (centres unmarked) [Example I-09] | – | 100 | – | 100 | 90 | efficacy (spider mites killed) [10]: 90% |
| CCS(=O)(=O)c1c(-c2nc3cc(C(F)(F)F)n(C)c(=O)c3n2C)nc2cc(C(F)(F)C3CC3)ccn12 [Example I-07] | – | 100 | 100 | 100 | – | – |
| CCS(=O)(=O)c1c(-c2nc3cc(C(F)(F)F)n(C)c(=O)c3n2C)nc2n1CCC(C)C2 (centres unmarked) [Example I-05] | – | 100 | – | – | 100 | nematicidal efficacy (formation of galls) [8]: 90% |
| CCS(=O)(=O)c1c(-c2nc3cc(C(F)(F)F)n(C)c(=O)c3n2C)nc2cc(C(=O)C3CC3)ccn12 [Example I-08] | – | 100 | 100 | 100 | 90 | – |

Second part, led by results:

| chromatographic logP [5] | SMILES | pest or weed control at 4 ppm [3] [%] | efficacy (caterpillars killed) [4] [%] | efficacy [6] [%] | pest or weed control at 100 g/ha [7] [%] | other results |
| --- | --- | --- | --- | --- | --- | --- |
| 3.2 | CCS(=O)(=O)c1c(-c2nc3cc(C(F)(F)F)n(C)c(=O)c3n2C)nc2cc(C(F)(F)F)ccn12 [Example I-01, 2-[3-(Ethylsulfonyl)-7-(trifluoromethyl)imidazo[1,2-a]pyridin-2-yl]-3,5-dimethyl-6-(trifluoromethyl)-3,5-dihydro-4H-imidazo[4,5-c]pyridin-4-one] | 100 | 100 | – | – | efficacy (laying of fertile eggs) [1]: 100%; efficacy (kill in %) [2]: 95% |
| 2.59 | CCS(=O)(=O)c1c(-c2nc3cc(C(F)(F)F)n(C)c(=O)c3n2C)nc2cc(C3(C#N)CC3)ccn12 [Example I-02, 1-{2-[3,5-Dimethyl-4-oxo-6-(trifluoromethyl)-4,5-dihydro-3H-imidazo [4,5-c]pyridin-2-yl]-3-(ethylsulfonyl)imidazo[1,2-a]pyridin-7-yl}cyclopropanecarbonitrile] | 100 | 100 | – | 100 | efficacy (kill in %) [2]: 100%; nematicidal efficacy (formation of galls) [8]: 100%; efficacy (beetle larvae killed) [9]: 100% |
| 2.66 | CCS(=O)(=O)c1c(-c2nc3cc(C(F)(F)F)n(C)c(=O)c3n2C)nc2n1CCC(C)(C)C2 [Example I-10, 2-(3-Ethylsulfonyl-7,7-dimethyl-6,8-dihydro-5H-imidazo[1,2-a]pyridin-2-yl)-3,5-dimethyl-6-(trifluoromethyl)imidazo[4,5-c]pyridin-4-one] | 100 | – | 100 | 90 | – |
| 2.59 | CCS(=O)(=O)c1c(-c2nc3cc(C(F)(F)F)n(C)c(=O)c3n2C)nc2cc(S(=O)(=O)C3CC3)ccn12 [Example I-12, 2-[7-(Cyclopropylsulfonyl)-3-(ethylsulfonyl)imidazo[1,2-a]pyridin-2-yl]-3,5-dimethyl-6-(trifluoromethyl)-3,5-dihydro-4H-imidazo[4,5-c]pyridin-4-one] | 100 | 100 | 100 | – | – |
| 3.14 | Cn1c(C(F)(F)F)cc2nc(-c3nc4n(c3Br)CCC(C)(C)C4)n(C)c2c1=O [2-(3-Bromo-7,7-dimethyl-6,8-dihydro-5H-imidazo[1,2-a]pyridin-2-yl)-3,5-dimethyl-6-(trifluoromethyl)imidazo[4,5-c]pyridin-4-one] | – | – | – | – | – |
| 0.67 | CC1(C)CCn2c(nc(C(=O)O)c2Br)C1 [3-Bromo-7,7-dimethyl-6,8-dihydro-5H-imidazo[1,2-a]pyridine-2-carboxylicacid] | – | – | – | – | – |
| 2.03 | CCS(=O)(=O)c1c(-c2nc3cc(C(F)(F)F)n(C)c(=O)c3n2C)nc2n1CCCC2 [Example I-03, 2-[3-(Ethylsulfonyl)-5,6,7,8-tetrahydroimidazo[1,2-a]pyridin-2-yl]-3,5-dimethyl-6-(trifluoromethyl)-3,5-dihydro-4H-imidazo[4,5-c]pyridin-4-one] | 100 | – | – | 90 | – |

Source: patent US20210017193A1, “CONDENSED BICYCLIC HETEROCYCLIC DERIVATIVES AS PEST CONTROL AGENTS” (Bayer Aktiengesellschaft, priority 2018, published 2021)
